In PubChem BioAssay AID248 (DTP/NCI, 2004):
Toxic doses and inconclusive results are not listed. Cut-off read from the data, not from the text of the source: active = T/C of 150% or more; inactive = T/C below 125%.

System: L1210 leukemia ip in BDF1 mice, survival T/C
Assay: NCI In Vivo Anticancer Drug Screen. Data for tumor model L1210 Leukemia (intraperitoneal) in B6D2F1 (BDF1) mice
Conditions: endpoint: mean survival time, higher = longer survival
Procedure, shortened: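 Read-out is survival time, reported as the treated-group measurement over the vehicle-control measurement.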

[1] = dose: 100.0 mg/kg/injection, schedule: Q01DX009 (ip), vehicle: Klucel (hydroxypropylcellulose) (HPC)
[2] = dose: 200.0 mg/kg/injection, schedule: Q01DX009 (ip), vehicle: Klucel (hydroxypropylcellulose) (HPC)
[3] = dose: 400.0 mg/kg/injection, schedule: Q01DX009 (ip), vehicle: Klucel (hydroxypropylcellulose) (HPC)
[4] = dose: 100.0 mg/kg/injection, schedule: Q04DX003 (ip), vehicle: saline with Tween-80
[5] = dose: 200.0 mg/kg/injection, schedule: Q04DX003 (ip), vehicle: saline with Tween-80
[6] = dose: 400.0 mg/kg/injection, schedule: Q04DX003 (ip), vehicle: saline with Tween-80
[7] = dose: 100.0 mg/kg/injection, schedule: Q04DX003 (ip), vehicle: saline
[8] = dose: 200.0 mg/kg/injection, schedule: Q04DX003 (ip), vehicle: saline
[9] = dose: 400.0 mg/kg/injection, schedule: Q04DX003 (ip), vehicle: saline
[10] = dose: 50.0 mg/kg/injection, schedule: Q01DX001 (ip), vehicle: saline
[11] = dose: 100.0 mg/kg/injection, schedule: Q01DX001 (ip), vehicle: saline
[12] = dose: 200.0 mg/kg/injection, schedule: Q01DX001 (ip), vehicle: saline
[13] = dose: 400.0 mg/kg/injection, schedule: Q01DX001 (ip), vehicle: saline
[14] = dose: 100.0 mg/kg/injection, schedule: Q04DX002 (ip), vehicle: Klucel (hydroxypropylcellulose) (HPC)
[15] = dose: 200.0 mg/kg/injection, schedule: Q04DX002 (ip), vehicle: Klucel (hydroxypropylcellulose) (HPC)
[16] = dose: 12.5 mg/kg/injection, schedule: Q01DX009 (ip), vehicle: Klucel (hydroxypropylcellulose) (HPC)
[17] = dose: 25.0 mg/kg/injection, schedule: Q01DX009 (ip), vehicle: Klucel (hydroxypropylcellulose) (HPC)
[18] = dose: 100.0 mg/kg/injection, schedule: Q01DX001 (ip), vehicle: carboxymethylcellulose (CMC)
[19] = dose: 200.0 mg/kg/injection, schedule: Q01DX001 (ip), vehicle: carboxymethylcellulose (CMC)
[20] = dose: 400.0 mg/kg/injection, schedule: Q01DX001 (ip), vehicle: carboxymethylcellulose (CMC)

Measured: T/C

Nc1n[nH]c(=S)s1
inactive: dose: 46.0 mg/kg/injection, schedule: Q03HX032 (ip), vehicle: Klucel (hydroxypropylcellulose) (HPC) 102 % of control | dose: 70.0 mg/kg/injection, schedule: Q03HX032 (ip), vehicle: Klucel (hydroxypropylcellulose) (HPC) 105 % of control | [1] 95 % of control | dose: 105.0 mg/kg/injection, schedule: Q03HX032 (ip), vehicle: Klucel (hydroxypropylcellulose) (HPC) 108 % of control | dose: 158.0 mg/kg/injection, schedule: Q03HX032 (ip), vehicle: Klucel (hydroxypropylcellulose) (HPC) 106 % of control | dose: 183.0 mg/kg/injection, schedule: Q01DX015 (ip), vehicle: Klucel (hydroxypropylcellulose) (HPC) 108 % of control | [2] 117 % of control | dose: 236.0 mg/kg/injection, schedule: Q03HX032 (ip), vehicle: Klucel (hydroxypropylcellulose) (HPC) 114 % of control | dose: 264.0 mg/kg/injection, schedule: Q01DX015 (ip), vehicle: Klucel (hydroxypropylcellulose) (HPC) 115 % of control | dose: 394.0 mg/kg/injection, schedule: Q01DX015 (ip), vehicle: Klucel (hydroxypropylcellulose) (HPC) 116 % of control | dose: 440.0 mg/kg/injection, schedule: Q01DX001 (ip), vehicle: Klucel (hydroxypropylcellulose) (HPC) 101 % of control | dose: 670.0 mg/kg/injection, schedule: Q01DX001 (ip), vehicle: Klucel (hydroxypropylcellulose) (HPC) 94 % of control

CC(=O)Nc1ccc(S(=O)(=O)Nc2ccc(F)cc2)cc1
inactive: [1] 96 % of control | [2] 98 % of control | [3] 102 % of control

O=c1[nH]cc(Sc2ccccc2)c(=O)[nH]1
inactive: [4] 101 % of control | [5] 93 % of control | [6] 96 % of control

NC(=O)c1nccnc1C(N)=O
inactive: dose: 100.0 mg/kg/injection, schedule: Q04DX003 (ip), vehicle: Klucel (hydroxypropylcellulose) (HPC) 101 % of control | [4] 96 % of control | dose: 200.0 mg/kg/injection, schedule: Q04DX003 (ip), vehicle: Klucel (hydroxypropylcellulose) (HPC) 101 % of control | [5] 96 % of control | dose: 400.0 mg/kg/injection, schedule: Q04DX003 (ip), vehicle: Klucel (hydroxypropylcellulose) (HPC) 93 % of control | [6] 96 % of control

CC1CCC(O)C1O (stereo not drawn)
inactive: dose: 100.0 mg/kg/injection, schedule: Q01DX009 (ip), vehicle: saline 105 % of control | [7] 94 % of control | dose: 200.0 mg/kg/injection, schedule: Q01DX009 (ip), vehicle: saline 105 % of control | [8] 97 % of control | dose: 400.0 mg/kg/injection, schedule: Q01DX009 (ip), vehicle: saline 102 % of control | [9] 97 % of control

CC(=O)c1ccc(Nc2ccnc3cc(Cl)ccc23)cc1
inactive: dose: 75.0 mg/kg/injection, schedule: Q01DX001 (ip), vehicle: other 109 % of control | dose: 150.0 mg/kg/injection, schedule: Q01DX001 (ip), vehicle: other 96 % of control | dose: 300.0 mg/kg/injection, schedule: Q01DX001 (ip), vehicle: other 91 % of control

CCOC(=O)/C(N=O)=C(/O)c1ccccc1
inactive: [4] 103 % of control | [5] 94 % of control | [6] 96 % of control

O=C1Nc2ccc3c4c(ccc1c24)CC3
inactive: [10] 104 % of control | [11] 95 % of control | [12] 98 % of control | [13] 98 % of control

O=C1CCSC(=S)N1c1ccc(Cl)c(Cl)c1
inactive: dose: 25.0 mg/kg/injection, schedule: Q04DX003 (ip), vehicle: saline with Tween-80 101 % of control | dose: 50.0 mg/kg/injection, schedule: Q04DX003 (ip), vehicle: saline with Tween-80 101 % of control | [4] 104 % of control

CC(C(N)=O)N1C(=O)C2C3CCC(C3)C2C1=O (stereo not drawn)
inactive: [7] 103 % of control | [8] 91 % of control | [9] 86 % of control

CN(C)C(=S)Oc1ccc([N+](=O)[O-])cc1Cl
inactive: [1] 103 % of control | [2] 95 % of control | [3] 100 % of control

NC(CCSC(c1ccccc1)c1ccccc1)C(=O)O (stereo not drawn)
inactive: [11] 101 % of control | [12] 97 % of control | [13] 97 % of control

CCOC(=O)CCCCCC(C(=O)OCC)c1nc2ccccc2[nH]c1=O (stereo not drawn)
inactive: [14] 99 % of control | [15] 101 % of control | dose: 400.0 mg/kg/injection, schedule: Q04DX002 (ip), vehicle: Klucel (hydroxypropylcellulose) (HPC) 86 % of control

COC1OC(COC(=O)c2ccc([N+](=O)[O-])cc2)C(OCc2ccccc2)C1OC(=O)c1ccc([N+](=O)[O-])cc1 (stereo not drawn)
inactive: [10] 113 % of control | [11] 105 % of control | [12] 116 % of control | [13] 105 % of control

CCCc1nc2c(OC)ccc(OC)c2nc1C
inactive: [16] 98 % of control | [17] 97 % of control | dose: 50.0 mg/kg/injection, schedule: Q01DX009 (ip), vehicle: Klucel (hydroxypropylcellulose) (HPC) 92 % of control | [1] 94 % of control | dose: 100.0 mg/kg/injection, schedule: Q04DX003 (ip), vehicle: acetone 97 % of control | [2] 86 % of control | dose: 200.0 mg/kg/injection, schedule: Q04DX003 (ip), vehicle: acetone 97 % of control | dose: 400.0 mg/kg/injection, schedule: Q04DX003 (ip), vehicle: acetone 98 % of control

S=c1nc(-c2ccccc2)[nH][nH]1
inactive: [4] 97 % of control | [5] 98 % of control | [6] 88 % of control

CCOC(=O)C1=C(C)NC(C)=C(C(=O)OCC)C1c1ccc(Cl)cc1
inactive: [4] 98 % of control | [5] 93 % of control | [6] 88 % of control

CCOc1ccc(/C=N\NC(=O)c2ccco2)cc1OCC
inactive: [18] 93 % of control | [19] 95 % of control | [20] 97 % of control

CC(C)(C)COC(=O)C(C)(C)C
inactive: [11] 117 % of control | [12] 112 % of control | [13] 102 % of control

Clc1ncc(Br)c(Cl)n1
inactive: dose: 6.25 mg/kg/injection, schedule: Q01DX009 (ip), vehicle: Klucel (hydroxypropylcellulose) (HPC) 102 % of control | [16] 102 % of control | [17] 101 % of control | dose: 100.0 mg/kg/injection, schedule: Q04DX003 (ip), vehicle: other 119 % of control | dose: 200.0 mg/kg/injection, schedule: Q04DX003 (ip), vehicle: other 90 % of control

COc1ccc(OC)c(/C=C/C(=O)n2cnc3c(N)ncnc32)c1
inactive: [4] 93 % of control | [5] 93 % of control | [6] 88 % of control

CN1C(c2ccccc2)=CN(Cc2ccccc2)C=C1c1ccccc1
inactive: dose: 50.0 mg/kg/injection, schedule: Q04DX002 (ip), vehicle: Klucel (hydroxypropylcellulose) (HPC) 103 % of control | [14] 100 % of control | [15] 97 % of control

C/C(=N/OC(=O)N(C)C)c1ccccc1
inactive: [18] 104 % of control | [19] 101 % of control | [20] 90 % of control
